“And” between values parts separate entries of the source, which are not always exact repeats. Identical values can stand only once. Toxic doses and inconclusive results are not listed.

The subject of this experiment is L1210 leukemia ip in BDF1 mice, survival T/C. The experiment in a line: NCI In Vivo Anticancer Drug Screen. Data for tumor model L1210 Leukemia (intraperitoneal) in B6D2F1 (BDF1) mice. To be noted: endpoint: mean survival time, higher = longer survival. A digest of the protocol: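 Value reflects the ratio of survival in compound-treated mice to survival in vehicle-treated controls, with both groups carrying the same transplanted tumor.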

Where [1] appears, read: dose: 100.0 mg/kg/injection, schedule: Q01DX001 (ip), vehicle: carboxymethylcellulose (CMC).
The mark [2] stands for this setting: dose: 200.0 mg/kg/injection, schedule: Q01DX001 (ip), vehicle: carboxymethylcellulose (CMC).
The mark [3] stands for this setting: dose: 400.0 mg/kg/injection, schedule: Q01DX001 (ip), vehicle: carboxymethylcellulose (CMC).
Where [4] appears, read: dose: 100.0 mg/kg/injection, schedule: Q04DX003 (ip), vehicle: saline.
The mark [5] stands for this setting: dose: 200.0 mg/kg/injection, schedule: Q04DX003 (ip), vehicle: saline.
[6] abbreviates: dose: 400.0 mg/kg/injection, schedule: Q04DX003 (ip), vehicle: saline.
[7] abbreviates: dose: 100.0 mg/kg/injection, schedule: Q01DX009 (ip), vehicle: saline with Tween-80.
[8] abbreviates: dose: 25.0 mg/kg/injection, schedule: Q01DX009 (ip), vehicle: Klucel (hydroxypropylcellulose) (HPC).
The mark [9] stands for this setting: dose: 50.0 mg/kg/injection, schedule: Q01DX009 (ip), vehicle: Klucel (hydroxypropylcellulose) (HPC).
[10] abbreviates: dose: 100.0 mg/kg/injection, schedule: Q01DX009 (ip), vehicle: Klucel (hydroxypropylcellulose) (HPC).
[11] abbreviates: dose: 100.0 mg/kg/injection, schedule: Q04DX003 (ip), vehicle: Klucel (hydroxypropylcellulose) (HPC).
[12] abbreviates: dose: 200.0 mg/kg/injection, schedule: Q01DX009 (ip), vehicle: Klucel (hydroxypropylcellulose) (HPC).
Where [13] appears, read: dose: 200.0 mg/kg/injection, schedule: Q04DX003 (ip), vehicle: Klucel (hydroxypropylcellulose) (HPC).
Where [14] appears, read: dose: 400.0 mg/kg/injection, schedule: Q04DX003 (ip), vehicle: Klucel (hydroxypropylcellulose) (HPC).
[15] abbreviates: dose: 100.0 mg/kg/injection, schedule: Q04DX003 (ip), vehicle: saline with Tween-80.
[16] abbreviates: dose: 200.0 mg/kg/injection, schedule: Q04DX003 (ip), vehicle: saline with Tween-80.
The mark [17] stands for this setting: dose: 400.0 mg/kg/injection, schedule: Q04DX003 (ip), vehicle: saline with Tween-80.

Regarding `O=[N+]([O-])c1c[nH]c2ncnc(SCc3ccccc3)c12`, the T/C is 87 % of control under setting [1], 93 % of control under setting [2] and 91 % of control under setting [3].
In the case of `O=C(NNC(=O)c1cccc2ccccc12)c1cc(Br)ccc1Br`, the T/C was 97 % of control under setting [4], 87 % of control under setting [5] and 100 % of control under setting [6].
For the molecule `O=C1C(O)=C(c2ccccc2C(=O)O)C(=O)C(O)=C1c1ccccc1C(=O)O`, the T/C is 101 % of control (dose: 25.0 mg/kg/injection, schedule: Q01DX009 (ip), vehicle: saline with Tween-80); 101 % of control (dose: 50.0 mg/kg/injection, schedule: Q01DX009 (ip), vehicle: saline with Tween-80); 102 % of control (dose: 50.0 mg/kg/injection, schedule: Q04DX002 (ip), vehicle: saline with Tween-80); 96 % of control under setting [7]; 98 % of control and 109 % of control (dose: 100.0 mg/kg/injection, schedule: Q04DX002 (ip), vehicle: saline with Tween-80); 102 % of control and 113 % of control (dose: 200.0 mg/kg/injection, schedule: Q04DX002 (ip), vehicle: saline with Tween-80). Also, where the note is “dose: 400.0 mg/kg/injection, schedule: Q04DX002 (ip), vehicle: saline with Tween-80”, the T/C is 98 % of control and 104 % of control.
`CCc1c(O)c2ccc3ccccc3c2oc1=O`: the T/C is, setting by setting: under setting [4], 97 % of control; under setting [5], 94 % of control; under setting [6], 94 % of control.
On to `CN(C)CCC(CN=C(N)N)c1cccc2ccccc12` (centres undefined), for which the T/C reads like this: (dose: 12.5 mg/kg/injection, schedule: Q01DX009 (ip), vehicle: saline) 100 % of control; (dose: 25.0 mg/kg/injection, schedule: Q01DX009 (ip), vehicle: saline) 100 % of control; (dose: 25.0 mg/kg/injection, schedule: Q04DX002 (ip), vehicle: saline) 93 % of control; (dose: 50.0 mg/kg/injection, schedule: Q01DX009 (ip), vehicle: saline) 101 % of control; (dose: 50.0 mg/kg/injection, schedule: Q04DX002 (ip), vehicle: saline) 97 % of control.
`O=C(/C=C\C(=O)c1ccc(Cl)cc1)c1ccc(Cl)cc1`: the T/C by setting is: (dose: 50.0 mg/kg/injection, schedule: Q04DX003 (ip), vehicle: carboxymethylcellulose (CMC)) 104 % of control; (dose: 100.0 mg/kg/injection, schedule: Q04DX003 (ip), vehicle: carboxymethylcellulose (CMC)) 112 % of control; (dose: 200.0 mg/kg/injection, schedule: Q04DX003 (ip), vehicle: carboxymethylcellulose (CMC)) 102 % of control.
Regarding `C=C[CH2][Sn]([Br])([c]1ccccc1)[c]1ccccc1`, the T/C is, setting by setting: (dose: 1.56 mg/kg/injection, schedule: Q01DX009 (ip), vehicle: saline with Tween-80) 89 % of control; (dose: 3.13 mg/kg/injection, schedule: Q01DX009 (ip), vehicle: saline with Tween-80) 92 % of control.
Turning to `CCCC1(C)COB(c2ccc(C)cc2)OC1`, the T/C by setting is: under setting [8], 102 % of control; under setting [9], 105 % of control; (dose: 50.0 mg/kg/injection, schedule: Q04DX003 (ip), vehicle: Klucel (hydroxypropylcellulose) (HPC)) 92 % of control; under setting [10], 114 % of control; under setting [11], 101 % of control; under setting [12], 122 % of control. For the same molecule, the T/C was 92 % of control under setting [13]; 88 % of control (dose: 400.0 mg/kg/injection, schedule: Q01DX009 (ip), vehicle: Klucel (hydroxypropylcellulose) (HPC)); 95 % of control under setting [14].
Turning to `Cc1cc(N(CCOS(C)(=O)=O)CCOS(C)(=O)=O)ccc1C=Nc1ccc(-c2csc(COc3ccccc3)n2)cc1`, the T/C (dose: 66.0 mg/kg/injection, schedule: Q04DX003 (ip), vehicle: Klucel (hydroxypropylcellulose) (HPC)) was 116 % of control; the T/C under setting [11] is 98 % of control; the T/C (dose: 125.0 mg/kg/injection, schedule: Q04DX003 (ip), vehicle: Klucel (hydroxypropylcellulose) (HPC)) is 158 % of control; the T/C (dose: 150.0 mg/kg/injection, schedule: Q04DX003 (ip), vehicle: Klucel (hydroxypropylcellulose) (HPC)) was 154 % of control; the T/C under setting [13] is 151 % of control.
As to `O=C(/C=C/c1c(Cl)cccc1Cl)c1ccc([N+](=O)[O-])cc1`, the T/C reads like this: under setting [11], 103 % of control; under setting [13], 94 % of control; under setting [14], 94 % of control.
For the molecule `COc1ccc(-n2c(=S)[nH]c3ccc(C)cc3c2=O)cc1`, the T/C runs as follows: under setting [15], 92 % of control; under setting [16], 87 % of control; under setting [17], 90 % of control.
Regarding `CCOc1nc(C)cc(C(=O)O)c1C#N`, the T/C reads like this: (dose: 75.0 mg/kg/injection, schedule: Q01DX001 (ip), vehicle: other) 95 % of control; (dose: 150.0 mg/kg/injection, schedule: Q01DX001 (ip), vehicle: other) 100 % of control; (dose: 300.0 mg/kg/injection, schedule: Q01DX001 (ip), vehicle: other) 103 % of control.
Consider `COc1ccc(Sc2cccc3c2C(C)(O)c2c(Sc4ccc(OC)cc4)cccc2C3(C)O)cc1` (centres undefined), for which the T/C under setting [7] is 100 % of control; the T/C under setting [15] is 97 % of control; the T/C (dose: 200.0 mg/kg/injection, schedule: Q01DX009 (ip), vehicle: saline with Tween-80) was 92 % of control; the T/C under setting [16] was 95 % of control; the T/C (dose: 400.0 mg/kg/injection, schedule: Q01DX009 (ip), vehicle: saline with Tween-80) is 92 % of control; the T/C under setting [17] was 93 % of control.
As to `Cc1ccc(NC(=S)NCCO)cc1`, the T/C was 100 % of control under setting [15], 102 % of control under setting [16] and 97 % of control under setting [17].
`c1ccc(-c2c(-c3ccc4c(c3)CCCC4)c(-c3ccccc3)c3c(c2-c2ccccc2)-c2cccc4cccc-3c24)cc1`: the T/C (dose: 100.0 mg/kg/injection, schedule: Q01DX001 (ip), vehicle: saline with Tween-80) was 87 % of control; the T/C (dose: 200.0 mg/kg/injection, schedule: Q01DX001 (ip), vehicle: saline with Tween-80) is 87 % of control; the T/C (dose: 400.0 mg/kg/injection, schedule: Q01DX001 (ip), vehicle: saline with Tween-80) was 100 % of control.
`CCCCCCCCCCCCCCCC[N+]1(C)CCS(C)(OS(=O)(=O)OC)CC1` (centres undefined): the T/C by setting is: (dose: 6.25 mg/kg/injection, schedule: Q01DX001 (ip), vehicle: saline) 95 % of control; (dose: 12.5 mg/kg/injection, schedule: Q01DX001 (ip), vehicle: saline) 88 % of control; (dose: 25.0 mg/kg/injection, schedule: Q01DX001 (ip), vehicle: saline) 88 % of control.
In the case of `CCN(C(=S)Nc1cccc(OC)c1)c1ccccc1`, the T/C under setting [10] is 90 % of control and the T/C under setting [12] is 94 % of control.
For `CCOP(OCC)N1CCCCCC1=O`, the T/C under setting [15] is 100 % of control, the T/C under setting [16] is 95 % of control and the T/C under setting [17] was 89 % of control.
Regarding `COc1ccc2c(C(=O)CCC(=O)O)cccc2c1`, the T/C was 104 % of control under setting [4], 95 % of control under setting [5] and 106 % of control under setting [6].
`N/C(Cc1ccc([N+](=O)[O-])cc1)=N\O`: the T/C was 100 % of control under setting [8], 91 % of control under setting [9] and 100 % of control under setting [10].
For the molecule `CCCCCCCCCCCCSCCCCSCCCCCCCCCCCC`, the T/C reads like this: (dose: 100.0 mg/kg/injection, schedule: Q01DX001 (ip), vehicle: Klucel (hydroxypropylcellulose) (HPC)) 93 % of control; (dose: 200.0 mg/kg/injection, schedule: Q01DX001 (ip), vehicle: Klucel (hydroxypropylcellulose) (HPC)) 89 % of control; (dose: 400.0 mg/kg/injection, schedule: Q01DX001 (ip), vehicle: Klucel (hydroxypropylcellulose) (HPC)) 91 % of control.
`CCC1SC(CC)(CC(C)C)C(=O)NC1=O` (centres undefined): the T/C was 102 % of control under setting [1], 94 % of control under setting [2] and 94 % of control under setting [3].
As to `O=C1CC(=O)N(c2ccccc2)N1`, the T/C is 96 % of control (dose: 100.0 mg/kg/injection, schedule: Q01DX001 (ip), vehicle: saline); 98 % of control (dose: 200.0 mg/kg/injection, schedule: Q01DX001 (ip), vehicle: saline); 98 % of control (dose: 400.0 mg/kg/injection, schedule: Q01DX001 (ip), vehicle: saline).
